Measured values as given in patent EP1147083B1, “ARYLPIPERAZINYL-CYCLOHEXYL INDOLE DERIVATIVES FOR THE TREATMENT OF DEPRESSION” (Wyeth, priority 1999, dated 2000).
Like-named read-outs stand apart in the source and are kept apart here.

Legend:
[1] = target: T1, human 5-HT1A receptor subtype (Homo sapiens, UniProt P08908); assay: 5-HT1A receptor binding assay with [3H]8-OH-DPAT on CHO cell membranes; conditions: [3H]8-OH-DPAT 1.5 nM
T1 construct: expressed in transfected cells
T1 sequence (P08908 1-422): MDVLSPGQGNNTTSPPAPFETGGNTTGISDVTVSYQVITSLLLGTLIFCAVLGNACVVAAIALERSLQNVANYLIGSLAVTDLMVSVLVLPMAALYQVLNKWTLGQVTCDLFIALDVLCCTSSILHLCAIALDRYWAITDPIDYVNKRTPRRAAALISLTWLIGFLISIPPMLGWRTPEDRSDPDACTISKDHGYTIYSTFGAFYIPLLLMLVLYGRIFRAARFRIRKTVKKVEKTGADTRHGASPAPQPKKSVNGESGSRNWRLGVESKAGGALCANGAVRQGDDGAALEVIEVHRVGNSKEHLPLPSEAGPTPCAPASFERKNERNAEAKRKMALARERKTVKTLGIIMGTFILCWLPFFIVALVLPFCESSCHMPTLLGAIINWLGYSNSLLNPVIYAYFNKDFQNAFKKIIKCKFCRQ
Description: (§1) The PCR cloning of the human 5-HT1A receptor subtype from a human genomic library has been described previously Chanda et al., Mol. Pharmacol., 43:516 (1993). A stable Chinese hamster ovary cell line expressing the human 5-HT1A receptor subtype (5-HT1A.CHO cells) was employed throughout this study. Cells were maintained in DMEM supplemented with 10% foetal calf serum, non-essential amino acids and penicillin/ streptomycin.
Cells were grown to 95-100% confluency as a monolayer before membranes were harvested for binding studies. Cells were gently scraped from the culture plates, transferred to centrifuge tubes, and washed twice by centrifugation (2000 rpm for 10 min., 4°C) in buffer (50 mM Tris; pH 7.5). The resulting pellets were aliquoted and placed at -80°C. On the day of assay, the cells were thawed on ice, and resuspended in buffer. Studies were conducted using [^3H]8-OH-DPAT as the radioligand. The binding assay was performed in 96 well microtiter plates in a final total volume of 250 µL of buffer. Competition experiments were performed by using 7 concentrations of unlabelled drug and a final ligand concentration of 1.5 nM. Nonspecific binding was determined in the presence of 10 µM 5HT. Saturation analysis was conducted by using [^3H]8-OH-DPAT at concentrations ranging from 0.3-30 nM. Following a 30 minute incubation at room temperature, the reaction was terminated by the addition of ice cold buffer and rapid filtration using a M-96 Brandel Cell Harvester (Gaithersburg, MD) through a GF/B filter presoaked for 30 minutes in 0.5% polyethyleneimine.

[2] = target: T2, 5-HT1A cloned receptor membrane fragments (Homo sapiens, UniProt P08908); assay: [35S]-GTPγS binding assay; assay type: biochemical; conditions: read-out: GTPγS (%EMax)
T2 construct: expressed in transfected cells
T2 sequence (P08908 1-422): T1 sequence (P08908 1-422)
Description: The [^35S]-GTPγS binding assay was similar to that used by Lazareno and Birdsall, Br. J. Pharmacol. 109:1120 (1993). Briefly, 5-HT1A cloned receptor membrane fragments (as used for 5-HT1A receptor binding assays) were stored at -70°C until needed. When needed, membranes were rapidly thawed, centrifuged at 40,000 x g for 10 minutes and resuspended at 4 °C for 10 minutes in assay buffer (25 mM HEPES, 3 mM MgCl2, 100 mM NaCl, 1 mM EDTA, 10 uM GDP, […], pH 8.0). These membranes were then incubated for 30 minutes at 30°C with [^35S]GTPgS (1 nM) in the presence of vehicle, test compound (one to eight concentrations), or excess 8-OH-DPAT to define maximum agonist response. All reactions are terminated by the addition of ice cold Tris buffer followed by rapid filtration using a Tom Tech® filtration device to separate bound from free [^35S]GTPgS. Agonists produce an increase in the amount of [^35S]GTPgS bound whereas antagonists produce no increase in binding. Bound radioactivity was counted and analyzed as above.

[3] = target: T3, human 5-HT1A receptor subtype (5-HT1A.CHO cells) (Homo sapiens, UniProt P08908); assay: cAMP formation in forskolin-treated cells (cAMP SPA assay); assay type: cell-based; conditions: value in brackets; forskolin 1 uM
T3 construct: expressed in transfected cells
T3 sequence (P08908 1-422): T1 sequence (P08908 1-422)
Description: as §1
The following assays were performed by incubating the cells with DMEM containing 25 mM HEPES, 5 mM theophylline and 10 µM pargyline for a period of 20 minutes at 37°C. Functional activity was assessed by treating the cells with forskolin (1 uM final concentration) followed immediately by test compound (6 concentrations) for an additional 10 minutes at 37°C. In separate experiments, 6 concentrations of antagonist were preincubated for 20 minutes prior to the addition of 10 nM 8-OH-DPAT and forskolin. The reaction was terminated by removal of the media and addition of 0.5 ml ice cold assay buffer. Plates were stored at -20°C prior to assessment of cAMP formation by a cAMP SPA assay (Amersham).

[4] = value in brackets, or a lone % in the cell, maximum agonist response defined by excess 8-OH-DPAT

Row | Ki [1] | Emax [2, 4] | Emax [3] | SMILES | Emax [2]
1 | 2.87 nM | 32% | 77% | COc1ccc2[nH]cc([C@H]3CC[C@H](N4CCN(c5cccc6[nH]ccc56)CC4)CC3)c2c1 [Example 8b, 5-Methoxy-3-[trans-4-[4-(1H-indol-4-yl)-1-piperazinyl]cyclohexyl]-1H-indole] | 
2 |  |  |  | Fc1ccc2[nH]cc([C@H]3CC[C@H](N4CCN(c5cccc6c5OCCO6)CC4)CC3)c2c1 [Example 24b, 3-{(1,4-trans)-4-[4-(2,3-Dihydro-benzo[1,4]dioxin-5-yl)-piperazin-1-yl]-cyclohexyl}-5-fluoro-1H-indole] | 73%
3 | 87.1 nM |  |  | Cc1[nH]c2ccccc2c1[C@H]1CC[C@@H](N2CCN(c3cccc4[nH]ccc34)CC2)CC1 [Example 9a, 3-[cis-4-[4-(1H-Indol-4-yl)-1-piperazinyl]cyclohexyl] -2-methyl-1H-indole] | 
4 | 5.29 nM | 32% | 77% | c1cc(N2CCN([C@H]3CC[C@H](c4c[nH]c5ccccc54)CC3)CC2)c2cc[nH]c2c1 [Example 1b, 3-[trans-4-[4-(1H-indol-4-yl)-1-piperazinyl]cyclohexyl]-1H-indole] | 
5 | 13 nM |  |  | Cc1[nH]c2ccccc2c1[C@H]1CC[C@H](N2CCN(c3cccc4[nH]ccc34)CC2)CC1 [Example 9b, 3-[trans-4-[4-(1H-Indol-4-yl)-1-piperazinyl]cyclohexyl] -2-methyl-1H-indole] | 
6 | 60.3 nM | 0% | 0% | COc1ccc2[nH]cc([C@H]3CC[C@@H](N4CCN(c5cccc6[nH]ccc56)CC4)CC3)c2c1 [Example 8a, 5-Methoxy-3-[cis-4-[4-(1H-indol-4-yl)-1-piperazinyl]cyclohexyl]-1H-indole] | 
7 | 117 nM |  |  | Fc1cccc2[nH]cc([C@H]3CC[C@@H](N4CCN(c5cccc6[nH]ccc56)CC4)CC3)c12 [Example 2a, 4-Fluoro-3-[cis-4-[4-(1H-indol-4-yl)-1-piperazinyl]cyclohexyl]-1H-indole] | 
8 | 32 nM | 0% | 0% | c1cc(N2CCN([C@H]3CC[C@@H](c4c[nH]c5ccccc54)CC3)CC2)c2cc[nH]c2c1 [Example 1a, 3-[cis-4-[4-(1H-Indol-4-yl)-1-piperazinyl]cyclohexyl]-1H-indole] | 
9 |  |  |  | Fc1ccc2c(c1)[nH]cc2[C@H]1CC[C@@H](N2CCN(c3cccc4c3OCCO4)CC2)CC1 [Example 25a, 3-{(1,4-cis)-4-[4-(2,3-Dihydro-benzo[1,4]dioxin-5-yl)-piperazin-1-yl]-cyclohexyl}-6-fluoro-1H-indole] | 9%
10 | 33.5 nM | 0% | 0% | Fc1ccc2c(c1)[nH]cc2[C@H]1CC[C@@H](N2CCN(c3cccc4[nH]ccc34)CC2)CC1 [Example 4a, 6-Fluoro-3-[cis-4-[4-(1H-indol-4-yl)-1-piperazinyl]cyclohexyl]-1H-indole] | 
11 |  | 0% | 0% | COc1cc(N2CCN([C@H]3CC[C@@H](c4c[nH]c5ccc(C#N)cc54)CC3)CC2)c2ncccc2c1 [Example 44c, 3-{(1,4-cis)-4-[4-(6-Methoxy-quinolin-8-yl)-piperazin-1-yl]-cyclohexyl}-1H-indole-5-carbonitrile] | 
12 | 5.45 nM |  | 7.5% | Fc1ccc2c(c1)[nH]cc2[C@H]1CC[C@H](N2CCN(c3cccc4[nH]ccc34)CC2)CC1 [Example 4b, 6-Fluoro-3-[trans-4-[4-(1H-indol-4-yl)-1-piperazinyl]cyclohexyl]-1H-indole] | 
13 |  |  |  | Fc1ccc2[nH]cc([C@H]3CC[C@@H](N4CCN(c5cccc6c5OCCO6)CC4)CC3)c2c1 [Example 24a, 3-{(1,4-cis)-4-[4-(2,3-Dihydro-benzo[1,4]dioxin-5-yl)-piperazin-1-yl]-cyclohexyl}-5-fluoro-1H-indole] | 15.4%
14 | 22.3 nM |  |  | Fc1cccc2[nH]cc([C@H]3CC[C@H](N4CCN(c5cccc6[nH]ccc56)CC4)CC3)c12 [Example 2b, 4-Fluoro-3-[trans-4-[4-(1H-indol-4-yl)-1-piperazinyl]cyclohexyl]-1H-indole] | 
15 |  |  |  | Fc1ccc2[nH]cc([C@H]3CC[C@H](N4CCN(c5cccc6cccnc56)CC4)CC3)c2c1 [Example 27b, 8-{4-[(1,4-trans)-4-(5-Fluoro-1H-indol-3-yl)-cyclohexyl] -piperazin-1-yl}-quinoline] | 66%
16 |  |  |  | N#Cc1ccc2[nH]cc([C@H]3CC[C@@H](N4CCN(c5cccc6cccnc56)CC4)CC3)c2c1 [Example 29a, 3-[(1,4-cis)-4-(4-Quinolin-8-yl-piperazin-1-yl)-cyclohexyl] -1H-indole-5-carbonitrile] | 23%
17 |  |  | 0% | Fc1ccc2[nH]cc([C@H]3CC[C@@H](N4CCN(c5cccc6cccnc56)CC4)CC3)c2c1 [Example 27a, 8-{4-[(1,4-cis)-4-(5-Fluoro-1H-indol-3-yl)-cyclohexyl] -piperazin-1-yl}-quinoline] | 20%
18 |  |  | 0% | Cn1cc([C@H]2CC[C@@H](N3CCN(c4cccc5cccnc45)CC3)CC2)c2cc(F)ccc21 [Example 28, 8-{4-(1,4-cis)-4-[4-(5-Fluoro-1-methyl-1H-indol-3-yl)-cyclohexyl] -piperazin-1-yl}-quinoline] | 0%
19 | 58.3 nM |  |  | Clc1ccc2[nH]cc([C@H]3CC[C@H](N4CCN(c5cccc6[nH]ccc56)CC4)CC3)c2c1 [Example 6b, 5-Chloro-3-[trans-4-[4-(1H-indol-4-yl)-1-piperazinyl]cyclohexyl]-1H-indole] | 

Row | SMILES | Ki [1] | Emax [2, 4] | Emax [3] | Emax [2]
20 | Fc1ccc2[nH]cc([C@H]3CC[C@H](N4CCN(c5cccc6[nH]ccc56)CC4)CC3)c2c1 [Example 3b, 5-Fluoro-3-[trans-4-[4-(1H-indol-4-yl)-1-piperazinyl]cyclohexyl]-1H-indole] | 4.62 nM |  | 0% | 51%
21 | Fc1ccc2[nH]cc([C@H]3CC[C@@H](N4CCN(c5cccc6[nH]ccc56)CC4)CC3)c2c1 [Example 3a, 5-Fluoro-3-[cis-4-[4-(1H-indot-4-yl)-1-piperazinyl]cyclohexyl]-1H-indole] | 36.7 nM |  | 0% | 10%
22 | N#Cc1ccc2[nH]cc([C@H]3CC[C@@H](N4CCN(c5cccc6[nH]ccc56)CC4)CC3)c2c1 [Example 7a, 3-{4-[(1,4-cis)-4-(1H-indol-4-yl)-piperazinyl-1-yl]cyclohexyl} -1H-indole-5-carbonitrile] |  |  | 0% | 
23 | c1cc(N2CCN([C@H]3CC[C@@H](c4c[nH]c5ncccc54)CC3)CC2)c2cc[nH]c2c1 [Example 10a, 3-{(1,4-cis)-4-[4-(1H-Indole-4-yl)-piperazin-1-yl]-cyclohexyl}-1H-pyrrolo[2,3-b]pyridine] |  |  | 0% | 
